Measured values published in patent publication US20260116902A1, “NOVEL COMPOUND AS FUNCTIONAL ANTAGONIST FOR S1PR1 AND S1PR4” (NEXTGEN BIOSCIENCE CO., LTD., priority 2024, published 2026).

Target: T1, S1PR1 (Homo sapiens, UniProt P21453)
T1 construct: host or cells: CHO-K1 (PathHunter eXpress β-Arrestin GPCR cells)
Experiment: β-arrestin recruitment assay (PathHunter CHO-K1), S1PR1
Assay type: cell-based
Settings: agonism
Procedure: To this end, each of the cell lines in which S1PR1, S1PR2, S1PR3, and S1PR4 are overexpressed (PathHunter® CHO-K1 eXpress β-Arrestin GPCR cells; DiscoverX, Fremont, USA) was seeded in a 384-well plate at 5000 cells/well and cultured using an AssayComplete™ Cell Culture Kit-107 (DiscoverX, Fremont, USA). […] A PathHunter detection reagent cocktail (DiscoverX, Fremont, USA) was added in accordance with the manufacturer's instructions and incubated for 1 hour, followed by measuring a chemiluminescent signal (luminescence reader, 0.1 to 1 second/well).

T1 sequence (P21453 whole entry): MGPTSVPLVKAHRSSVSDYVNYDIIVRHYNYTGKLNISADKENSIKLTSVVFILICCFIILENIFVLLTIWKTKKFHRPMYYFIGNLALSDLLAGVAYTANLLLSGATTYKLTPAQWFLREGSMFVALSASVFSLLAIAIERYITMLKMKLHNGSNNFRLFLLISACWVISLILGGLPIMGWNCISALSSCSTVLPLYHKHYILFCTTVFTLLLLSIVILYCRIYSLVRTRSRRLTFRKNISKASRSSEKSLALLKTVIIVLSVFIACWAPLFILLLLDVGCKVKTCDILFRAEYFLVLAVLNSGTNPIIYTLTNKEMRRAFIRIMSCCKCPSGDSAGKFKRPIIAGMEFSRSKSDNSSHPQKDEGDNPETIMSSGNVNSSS

EC50: 16.3 nM
SMILES: CCCCCCCCCCCCC/C=C/[C@@H](O)[C@@H](N)COP(=O)(O)O [Compound S1P, sphingosine-1-phosphate]
